Holding throughout (assay): relative viability (nuclei count vs DMSO), 5 days (fraction); higher = more cells survive
Compound in the assay “Mirin + Olaparib”: N=C1NC(=O)/C(=C/c2ccc(O)cc2)S1 [Mirin] + O=C(c1cc(Cc2n[nH]c(=O)c3ccccc23)ccc1F)N1CCN(C(=O)C2CC2)CC1 [Olaparib] (partner 8 µM)
The procedure, abridged:
(§1)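 Lung cancer cell lines in 1536-well plates got either a single drug or a fixed anchor-drug dose together with five library-drug doses (not always all listed) in √10 steps, by pin tool, on the day after seeding. Nuclei were counted after 5 days, and relative viability is the treated-to-vehicle ratio of nuclei counts. Values are medians of duplicate plates.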

Compound in assay [1]: CCC1=CN=CN=C1N2CCN(CC2)CC3=NC4=C(N3)C=C(C=C4)C(F)(F)F + N=C(N)NC(=N)NCCc1ccccc1 [Phenformin] (partner 250 µM)
The procedure, abridged:
as §1

Compound in assay [2]: CCn1c(-c2nonc2N)nc2cnc(Oc3cccc(NC(=O)c4ccc(OCCN5CCOCC5)cc4)c3)cc21 + CC1(C)CCC(c2ccc(Cl)cc2)=C(CN2CCN(c3ccc(C(=O)NS(=O)(=O)c4ccc(N[C@H](CCN5CCOCC5)CSc5ccccc5)c(S(=O)(=O)C(F)(F)F)c4)cc3)CC2)C1 [Navitoclax] (partner 0.5 µM)
The procedure, abridged: as §1

Compound in the assay “Mirin + Pemetrexed”: N=C1NC(=O)/C(=C/c2ccc(O)cc2)S1 [Mirin] + Nc1nc2[nH]cc(CCc3ccc(C(=O)N[C@@H](CCC(=O)O)C(=O)O)cc3)c2c(=O)[nH]1 [Pemetrexed] (partner 0.2 µM)
The procedure, abridged:
as §1

For UMC-11, the relative viability with Mirin + Olaparib (first compound 0.25 µM) came out at 0.382; with Mirin + Olaparib (first compound 0.7906 µM), 0.316; in the assay with Mirin + Olaparib (first compound 2.5 µM) it was 0.332; in the assay with Mirin + Olaparib (first compound 7.906 µM), 0.279; with Mirin + Olaparib (first compound 25 µM), 0.331; in assay [1] (first compound 0.04 µM), 0.327. Besides, the relative viability in assay [1] (first compound 0.1265 µM) came out at 0.3; in assay [1] (first compound 0.4 µM), 0.319; in assay [1] (first compound 1.265 µM), 0.279; in assay [1] (first compound 4 µM) it was 0.294; in assay [2] (first compound 0.04 µM), 0.349; in assay [2] (first compound 0.1265 µM), 0.314. The relative viability was 0.313 in assay [2] (first compound 0.4 µM); 0.151 in assay [2] (first compound 1.265 µM); 0.144 in assay [2] (first compound 4 µM); 0.787 in the assay with Mirin + Pemetrexed (first compound 0.25 µM); 0.74 in the assay with Mirin + Pemetrexed (first compound 0.7906 µM); 0.92 in the assay with Mirin + Pemetrexed (first compound 2.5 µM). In addition, the results for the relative viability with Mirin + Pemetrexed (first compound 7.906 µM) and with Mirin + Pemetrexed (first compound 25 µM) were 0.691 and 0.568, respectively.
